According to PubChem BioAssay AID256 (DTP/NCI, 2004):
Values joined by “and” are separate entries in the source; they are usually repeats but may differ in a detail not shown here. Equal entries are not always repeated. Inconclusive results and toxic doses are left out.

Tested on: CD2F1 mice, L1210 leukemia ip, survival T/C
Assay: NCI In Vivo Anticancer Drug Screen. Data for tumor model L1210 Leukemia (intraperitoneal) in CD2F1 (CDF1) mice
Conditions: higher = longer survival
Method in brief: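 Each value reflects a quotient of treated over vehicle control outcomes in mice with a transplanted tumor.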

[1] = endpoint: mean survival time, dose: 100.0 mg/kg/injection, schedule: Q01DX009 (ip), vehicle: saline
[2] = endpoint: mean survival time, dose: 200.0 mg/kg/injection, schedule: Q01DX009 (ip), vehicle: saline
[3] = endpoint: mean survival time, dose: 400.0 mg/kg/injection, schedule: Q01DX009 (ip), vehicle: saline
[4] = endpoint: mean survival time, dose: 100.0 mg/kg/injection, schedule: Q04DX003 (ip), vehicle: saline
[5] = endpoint: mean survival time, dose: 200.0 mg/kg/injection, schedule: Q04DX003 (ip), vehicle: saline
[6] = endpoint: mean survival time, dose: 400.0 mg/kg/injection, schedule: Q04DX003 (ip), vehicle: saline
[7] = endpoint: mean survival time, dose: 50.0 mg/kg/injection, schedule: Q01DX009 (ip), vehicle: saline with Tween-80
[8] = endpoint: mean survival time, dose: 100.0 mg/kg/injection, schedule: Q01DX009 (ip), vehicle: saline with Tween-80
[9] = endpoint: mean survival time, dose: 100.0 mg/kg/injection, schedule: Q04DX003 (ip), vehicle: saline with Tween-80
[10] = endpoint: mean survival time, dose: 200.0 mg/kg/injection, schedule: Q01DX009 (ip), vehicle: saline with Tween-80
[11] = endpoint: mean survival time, dose: 200.0 mg/kg/injection, schedule: Q04DX003 (ip), vehicle: saline with Tween-80
[12] = endpoint: mean survival time, dose: 100.0 mg/kg/injection, schedule: Q04DX002 (ip), vehicle: saline with Tween-80
[13] = endpoint: mean survival time, dose: 100.0 mg/kg/injection, schedule: Q01DX001 (ip), vehicle: saline
[14] = endpoint: mean survival time, dose: 200.0 mg/kg/injection, schedule: Q01DX001 (ip), vehicle: saline
[15] = endpoint: mean survival time, dose: 400.0 mg/kg/injection, schedule: Q01DX001 (ip), vehicle: saline
[16] = endpoint: mean survival time, dose: 100.0 mg/kg/injection, schedule: Q01DX001 (ip), vehicle: saline with Tween-80
[17] = endpoint: mean survival time, dose: 200.0 mg/kg/injection, schedule: Q01DX001 (ip), vehicle: saline with Tween-80
[18] = endpoint: mean survival time, dose: 50.0 mg/kg/injection, schedule: Q01DX009 (ip), vehicle: saline
[19] = endpoint: mean survival time, dose: 400.0 mg/kg/injection, schedule: Q04DX003 (ip), vehicle: saline with Tween-80

In the case of `CCSc1nc(N)c2ncn(C3OC(CO)C(O)C3O)c2n1` (centres undefined), the T/C (endpoint: median survival time, dose: 10.0 mg/kg/injection, schedule: Q01DX005 (ip), vehicle: saline with Tween-80) is reported as 103 % of control, the T/C (endpoint: median survival time, dose: 20.0 mg/kg/injection, schedule: Q01DX005 (ip), vehicle: saline with Tween-80) is reported as 100 % of control and the T/C (endpoint: median survival time, dose: 40.0 mg/kg/injection, schedule: Q01DX005 (ip), vehicle: saline with Tween-80) is reported as 91 % of control. The T/C (endpoint: median survival time, dose: 80.0 mg/kg/injection, schedule: Q01DX005 (ip), vehicle: saline with Tween-80) was 88 % of control and the T/C (endpoint: median survival time, dose: 160.0 mg/kg/injection, schedule: Q01DX005 (ip), vehicle: saline with Tween-80) was 93 % of control.
`CC1(C)C2CC=C(CC3CC(=O)OC3=O)C1C2` (centres undefined) was tested, and the T/C (endpoint: mean survival time, dose: 75.0 mg/kg/injection, schedule: Q01DX001 (ip), vehicle: other) was 97 % of control, the T/C (endpoint: mean survival time, dose: 150.0 mg/kg/injection, schedule: Q01DX001 (ip), vehicle: other) was 102 % of control and the T/C (endpoint: mean survival time, dose: 300.0 mg/kg/injection, schedule: Q01DX001 (ip), vehicle: other) was 108 % of control.
With `Nc1nc2ncn(O)c2c(=O)[nH]1` the T/C (endpoint: median survival time, dose: 3.12 mg/kg/injection, schedule: Q01DX009 (ip), vehicle: other) was 176 % of control, the T/C (endpoint: median survival time, dose: 6.25 mg/kg/injection, schedule: Q01DX009 (ip), vehicle: other) was 195 % of control and the T/C (endpoint: median survival time, dose: 6.25 mg/kg/injection, schedule: Q01DX009 (ip), vehicle: water) was 168 % of control and 172 % of control. The T/C (endpoint: median survival time, dose: 12.5 mg/kg/injection, schedule: Q01DX009 (ip), vehicle: other) was 162 % of control, the T/C (endpoint: median survival time, dose: 12.5 mg/kg/injection, schedule: Q01DX009 (ip), vehicle: water) was 168 % of control and 234 % of control and the T/C (endpoint: median survival time, dose: 25.0 mg/kg/injection, schedule: Q01DX009 (ip), vehicle: other) was 101 % of control. For the same molecule, the T/C (endpoint: median survival time, dose: 25.0 mg/kg/injection, schedule: Q01DX009 (ip), vehicle: water) was 164 % of control.
With `CCNCC` the T/C [1] was 100 % of control, the T/C [2] was 94 % of control and the T/C [3] was 105 % of control.
`Cc1cc(O)c2c(c1)C(=O)c1cccc(O)c1C2=O` was tested, and the T/C (endpoint: mean survival time, dose: 6.25 mg/kg/injection, schedule: Q01DX001 (ip), vehicle: saline) was 115 % of control, the T/C (endpoint: mean survival time, dose: 12.5 mg/kg/injection, schedule: Q01DX001 (ip), vehicle: saline) was 112 % of control and the T/C (endpoint: mean survival time, dose: 25.0 mg/kg/injection, schedule: Q01DX001 (ip), vehicle: saline) was 102 % of control.
With `CCCNC(=O)Oc1c(C(C)C)ccc(C)c1Cl` the T/C [4] was 98 % of control, the T/C [5] was 101 % of control and the T/C [6] was 95 % of control.
With `OC(CI)C1OCOC2COCOC21` (centres undefined) the T/C (endpoint: mean survival time, dose: 100.0 mg/kg/injection, schedule: Q04DX003 (ip), vehicle: Klucel (hydroxypropylcellulose) (HPC)) was 102 % of control, the T/C (endpoint: mean survival time, dose: 200.0 mg/kg/injection, schedule: Q04DX003 (ip), vehicle: Klucel (hydroxypropylcellulose) (HPC)) was 94 % of control and the T/C (endpoint: mean survival time, dose: 400.0 mg/kg/injection, schedule: Q04DX003 (ip), vehicle: Klucel (hydroxypropylcellulose) (HPC)) was 97 % of control.
With `NNC(=O)CCCO` the T/C [1] was 102 % of control, the T/C [2] was 101 % of control and the T/C [3] was 102 % of control.
With `COc1ccc([Si](C)(C)CNCCSS(=O)(=O)O)cc1` the T/C [7] was 97 % of control, the T/C [8] was 103 % of control and the T/C [9] was 101 % of control. The T/C [10] was 92 % of control and the T/C [11] was 95 % of control.
In the case of `CN(C)CC1CCC/C(=C\C=C\c2ccccc2)C1=O` (centres undefined), the T/C (endpoint: mean survival time, dose: 12.5 mg/kg/injection, schedule: Q04DX003 (ip), vehicle: Klucel (hydroxypropylcellulose) (HPC)) is reported as 100 % of control, the T/C (endpoint: mean survival time, dose: 25.0 mg/kg/injection, schedule: Q04DX003 (ip), vehicle: Klucel (hydroxypropylcellulose) (HPC)) is reported as 103 % of control and the T/C (endpoint: mean survival time, dose: 50.0 mg/kg/injection, schedule: Q04DX003 (ip), vehicle: Klucel (hydroxypropylcellulose) (HPC)) is reported as 94 % of control.
In the case of `CC(=O)Nc1cc(Cl)c2ncn(C3OC(CO)C(O)C3O)c2n1` (centres undefined), the T/C (endpoint: mean survival time, dose: 12.5 mg/kg/injection, schedule: Q01DX005 (ip), vehicle: water) is reported as 102 % of control, the T/C (endpoint: mean survival time, dose: 25.0 mg/kg/injection, schedule: Q01DX005 (ip), vehicle: water) is reported as 95 % of control and the T/C (endpoint: mean survival time, dose: 50.0 mg/kg/injection, schedule: Q01DX005 (ip), vehicle: water) is reported as 102 % of control. The T/C (endpoint: mean survival time, dose: 100.0 mg/kg/injection, schedule: Q01DX005 (ip), vehicle: water) was 91 % of control and the T/C (endpoint: mean survival time, dose: 200.0 mg/kg/injection, schedule: Q01DX005 (ip), vehicle: water) was 101 % of control.
With `CC1=C/C(=C/c2ccccc2)CC(C)(C)C1` (tested in a mixture with another compound) the T/C (endpoint: mean survival time, dose: 25.0 mg/kg/injection, schedule: Q01DX009 (ip), vehicle: saline with Tween-80) was 105 % of control, the T/C [7] was 103 % of control and the T/C [8] was 95 % of control. For the same molecule, the T/C [9] was 100 % of control.
With `CCOC(=O)CC/C=C\Cc1c(OC)c(C)c2c(c1OC(=O)Nc1ccc(C(C)=O)cc1)C(=O)OC2` the T/C [12] was 121 % of control.
For `CCOC(=O)C(C#N)CC` (centres undefined), the T/C [13] was 98 % of control, the T/C [14] was 98 % of control and the T/C [15] was 107 % of control.
`O=C(Nc1cc(Cl)cc(Cl)c1)C(F)(F)F` was tested, and the T/C [13] was 107 % of control, the T/C [14] was 101 % of control and the T/C [15] was 101 % of control.
`c1ccc(NC2=NCCO2)nc1` was tested, and the T/C [16] was 101 % of control and the T/C [17] was 100 % of control.
For `O=c1[nH]c2c([N+](=O)[O-])cc(Br)cc2c2ccccc12`, the T/C (endpoint: mean survival time, dose: 100.0 mg/kg/injection, schedule: Q01DX001 (ip), vehicle: carboxymethylcellulose (CMC)) was 100 % of control, the T/C (endpoint: mean survival time, dose: 200.0 mg/kg/injection, schedule: Q01DX001 (ip), vehicle: carboxymethylcellulose (CMC)) was 94 % of control and the T/C (endpoint: mean survival time, dose: 400.0 mg/kg/injection, schedule: Q01DX001 (ip), vehicle: carboxymethylcellulose (CMC)) was 100 % of control.
For `O=C(O)c1c(F)c(F)c(F)c(C(=O)O)c1F`, the T/C (endpoint: mean survival time, dose: 12.5 mg/kg/injection, schedule: Q01DX009 (ip), vehicle: saline) was 89 % of control, the T/C (endpoint: mean survival time, dose: 25.0 mg/kg/injection, schedule: Q01DX009 (ip), vehicle: saline) was 95 % of control and the T/C (endpoint: mean survival time, dose: 25.0 mg/kg/injection, schedule: Q04DX003 (ip), vehicle: saline) was 89 % of control. For the same molecule, the T/C [18] was 95 % of control, the T/C (endpoint: mean survival time, dose: 50.0 mg/kg/injection, schedule: Q04DX003 (ip), vehicle: saline) was 88 % of control and the T/C [9] was 93 % of control.
In the case of `Cc1cc(S(=O)(=O)F)cc(Cl)c1OC(=S)N(C)C`, the T/C [12] is reported as 96 % of control, the T/C (endpoint: mean survival time, dose: 200.0 mg/kg/injection, schedule: Q04DX002 (ip), vehicle: saline with Tween-80) is reported as 96 % of control and the T/C (endpoint: mean survival time, dose: 400.0 mg/kg/injection, schedule: Q04DX002 (ip), vehicle: saline with Tween-80) is reported as 92 % of control.
`O=C1c2ccccc2C(=O)c2c(O)ccc(O)c21` was tested, and the T/C [18] was 106 % of control, the T/C [16] was 88 % of control and the T/C [1] was 97 % of control. For the same molecule, the T/C [9] was 94 % of control, the T/C [17] was 91 % of control and the T/C [2] was 109 % of control. The T/C [11] was 102 % of control, the T/C (endpoint: mean survival time, dose: 400.0 mg/kg/injection, schedule: Q01DX001 (ip), vehicle: saline with Tween-80) was 86 % of control and the T/C [19] was 103 % of control.
For `O=S(=O)(Cl)c1cccc2cc3ccccc3cc12`, the T/C [4] was 109 % of control, the T/C [5] was 97 % of control and the T/C [6] was 103 % of control.
In the case of `Nc1nn[nH]n1`, the T/C [8] is reported as 95 % of control, the T/C [10] is reported as 90 % of control and the T/C (endpoint: mean survival time, dose: 400.0 mg/kg/injection, schedule: Q01DX009 (ip), vehicle: saline with Tween-80) is reported as 94 % of control.
For `C/C(=N/O)c1ccc(O)cc1`, the T/C [9] was 90 % of control, the T/C [11] was 100 % of control and the T/C [19] was 94 % of control.
In the case of `C[NH-].C[NH-].[Br][Pt+2][Br]`, the T/C (endpoint: mean survival time, dose: 1.25 mg/kg/injection, schedule: Q04DX003 (ip), vehicle: water) is reported as 106 % of control, the T/C (endpoint: mean survival time, dose: 2.5 mg/kg/injection, schedule: Q04DX003 (ip), vehicle: water) is reported as 108 % of control and the T/C (endpoint: mean survival time, dose: 5.0 mg/kg/injection, schedule: Q04DX003 (ip), vehicle: water) is reported as 110 % of control. For the same molecule, the T/C (endpoint: mean survival time, dose: 10.0 mg/kg/injection, schedule: Q04DX003 (ip), vehicle: water) was 97 % of control.
`CC(=O)CC(C)=O.CC(=O)CC(C)=O.CC(=O)CC(C)=O.[Fe]` was tested, and the T/C (endpoint: mean survival time, dose: 6.25 mg/kg/injection, schedule: Q01DX009 (ip), vehicle: saline with Tween-80) was 93 % of control, the T/C (endpoint: mean survival time, dose: 12.5 mg/kg/injection, schedule: Q01DX009 (ip), vehicle: saline with Tween-80) was 97 % of control and the T/C (endpoint: mean survival time, dose: 12.5 mg/kg/injection, schedule: Q04DX003 (ip), vehicle: saline with Tween-80) was 102 % of control. The T/C (endpoint: mean survival time, dose: 25.0 mg/kg/injection, schedule: Q04DX003 (ip), vehicle: saline with Tween-80) was 98 % of control.
